Patent US20080027006A1 (priority 2004, published 2008)

Target: HR-N and HR-C regions of the SARS-CoV S glycoprotein (Severe acute respiratory syndrome coronavirus, UniProt P59594)
Format: binding, SARS coronavirus (Urbani strain)

CC[C@H](C)[C@H](NC(=O)[C@H](CCC(N)=O)NC(=O)[C@H](CO)NC(=O)[C@@H](NC(=O)[C@H](C)NC(=O)[C@H](CCCCN)NC(=O)[C@H](CC(N)=O)NC(=O)[C@H](Cc1ccccc1)NC(=O)[C@H](CCC(N)=O)NC(=O)[C@H](CC(N)=O)NC(=O)[C@H](C)NC(=O)[C@@H](NC(=O)[C@H](CCC(N)=O)NC(=O)[C@H](CCCCN)NC(=O)[C@H](CCC(N)=O)NC(=O)[C@H](CC(N)=O)NC(=O)[C@H](CCC(=O)O)NC(=O)[C@H](Cc1ccc(O)cc1)NC(=O)[C@H](CC(C)C)NC(=O)[C@@H](NC(=O)[C@H](CC(N)=O)NC(=O)[C@H](CCC(N)=O)NC(=O)[C@@H](NC(=O)[C@@H](NC(=O)CNC(=O)[C@@H](NC(=O)CNC(=O)[C@H](CC(N)=O)NC(=O)[C@H](Cc1ccccc1)NC(=O)[C@H](CCCNC(=N)N)NC(=O)[C@H](Cc1ccc(O)cc1)NC(=O)[C@H](C)NC(=O)[C@H](CCSC)NC(=O)[C@H](CCC(N)=O)NC(=O)[C@H](CCSC)NC(C)=O)[C@@H](C)CC)C(C)C)[C@@H](C)O)C(C)C)[C@@H](C)CC)[C@@H](C)CC)C(N)=O [HR-N5]
interaction with HR-C1 (in words): no detectable interaction

CC[C@H](C)[C@H](NC(=O)[C@H](C)NC(=O)[C@H](CCCCN)NC(=O)[C@H](CC(N)=O)NC(=O)[C@H](Cc1ccccc1)NC(C)=O)C(=O)N[C@@H](CO)C(=O)N[C@@H](CCC(N)=O)C(=O)N[C@H](C(=O)N[C@@H](CCC(N)=O)C(=O)N[C@@H](CCC(=O)O)C(=O)N[C@@H](CO)C(=O)N[C@@H](CC(C)C)C(=O)N[C@H](C(=O)N[C@H](C(=O)N[C@H](C(=O)N[C@@H](CO)C(=O)N[C@H](C(=O)N[C@@H](C)C(=O)N[C@@H](CC(C)C)C(=O)NCC(=O)N[C@@H](CCCCN)C(=O)N[C@@H](CC(C)C)C(=O)N[C@@H](CCC(N)=O)C(=O)N[C@@H](CC(=O)O)C(=O)N[C@H](C(=O)N[C@H](C(=O)N[C@@H](CC(N)=O)C(=O)N[C@@H](CCC(N)=O)C(=O)N[C@@H](CC(N)=O)C(=O)N[C@@H](C)C(=O)N[C@@H](CCC(N)=O)C(=O)N[C@@H](C)C(=O)N[C@@H](CC(C)C)C(=O)N[C@@H](CC(N)=O)C(=O)N[C@H](C(N)=O)[C@@H](C)O)C(C)C)C(C)C)[C@@H](C)O)[C@@H](C)O)[C@@H](C)O)[C@@H](C)O)[C@@H](C)CC [HR-N9]
induction of ellipticity at 222 nm with HR-C1: 3,500 degrees

CC[C@H](C)[C@H](NC(=O)CNC(=O)[C@H](CC(N)=O)NC(=O)[C@H](Cc1ccccc1)NC(C)=O)C(=O)NCC(=O)N[C@H](C(=O)N[C@H](C(=O)N[C@@H](CCC(N)=O)C(=O)N[C@@H](CC(N)=O)C(=O)N[C@H](C(=O)N[C@@H](CC(C)C)C(=O)N[C@@H](Cc1ccc(O)cc1)C(=O)N[C@@H](CCC(=O)O)C(=O)N[C@@H](CC(N)=O)C(=O)N[C@@H](CCC(N)=O)C(=O)N[C@@H](CCCCN)C(=O)N[C@@H](CCC(N)=O)C(=O)N[C@H](C(=O)N[C@@H](C)C(=O)N[C@@H](CC(N)=O)C(=O)N[C@@H](CCC(N)=O)C(=O)N[C@@H](Cc1ccccc1)C(=O)N[C@@H](CC(N)=O)C(=O)N[C@@H](CCCCN)C(=O)N[C@@H](C)C(=O)N[C@H](C(=O)N[C@@H](CO)C(=O)N[C@@H](CCC(N)=O)C(=O)N[C@H](C(=O)N[C@@H](CCC(N)=O)C(=O)N[C@@H](CCC(=O)O)C(=O)N[C@@H](CO)C(=O)N[C@@H](CC(C)C)C(=O)N[C@H](C(=O)N[C@H](C(N)=O)[C@@H](C)O)[C@@H](C)O)[C@@H](C)CC)[C@@H](C)CC)[C@@H](C)CC)C(C)C)[C@@H](C)O)C(C)C [HR-N6]
interaction with HR-C1 (in words): No interactions

CC[C@H](C)[C@H](NC(=O)[C@H](C)NC(=O)CNC(=O)[C@H](Cc1ccccc1)NC(=O)[C@H](CC(N)=O)NC(=O)[C@H](CO)NC(=O)[C@H](CO)NC(=O)[C@H](CC(C)C)NC(=O)[C@H](CCC(N)=O)NC(=O)[C@H](CCCCN)NC(=O)[C@@H](NC(=O)[C@H](CC(C)C)NC(=O)[C@@H](NC(=O)[C@H](CC(N)=O)NC(=O)[C@H](CC(C)C)NC(=O)[C@H](C)NC(=O)[C@H](CCC(N)=O)NC(=O)[C@H](C)NC(=O)[C@H](CC(N)=O)NC(=O)[C@H](CCC(N)=O)NC(=O)[C@H](CC(N)=O)NC(=O)[C@@H](NC(=O)[C@@H](NC(=O)[C@H](CC(=O)O)NC(=O)[C@H](CCC(N)=O)NC(=O)[C@H](CC(C)C)NC(=O)[C@H](CCCCN)NC(=O)CNC(=O)[C@H](CC(C)C)NC(=O)[C@H](C)NC(=O)[C@@H](NC(=O)[C@H](CO)NC(=O)[C@@H](NC(C)=O)[C@@H](C)O)[C@@H](C)O)C(C)C)C(C)C)[C@@H](C)O)C(C)C)C(=O)N[C@@H](CO)C(=O)N[C@@H](CO)C(N)=O [HR-N11]
interaction with HR-C1 (in words): absence of any observable interaction

CC[C@H](C)[C@H](NC(C)=O)C(=O)N[C@@H](CCC(N)=O)C(=O)N[C@@H](CCC(=O)O)C(=O)N[C@@H](CO)C(=O)N[C@@H](CC(C)C)C(=O)N[C@H](C(=O)N[C@H](C(=O)N[C@H](C(=O)N[C@@H](CO)C(=O)N[C@H](C(=O)N[C@@H](C)C(=O)N[C@@H](CC(C)C)C(=O)NCC(=O)N[C@@H](CCCCN)C(=O)N[C@@H](CC(C)C)C(=O)N[C@@H](CCC(N)=O)C(=O)N[C@@H](CC(=O)O)C(=O)N[C@H](C(=O)N[C@H](C(=O)N[C@@H](CC(N)=O)C(=O)N[C@@H](CCC(N)=O)C(=O)N[C@@H](CC(N)=O)C(=O)N[C@@H](C)C(=O)N[C@@H](CCC(N)=O)C(=O)N[C@@H](C)C(=O)N[C@@H](CC(C)C)C(=O)N[C@@H](CC(N)=O)C(=O)N[C@H](C(=O)N[C@@H](CC(C)C)C(=O)N[C@H](C(=O)N[C@@H](CCCCN)C(=O)N[C@@H](CCC(N)=O)C(=O)N[C@@H](CC(C)C)C(=O)N[C@@H](CO)C(=O)N[C@@H](CO)C(N)=O)C(C)C)[C@@H](C)O)C(C)C)C(C)C)[C@@H](C)O)[C@@H](C)O)[C@@H](C)O)[C@@H](C)O [HR-N10]
induction of ellipticity at 222 nm with HR-C1: 9,600 degrees

CC[C@H](C)[C@H](NC(=O)[C@H](C)NC(=O)[C@H](CCCCN)NC(=O)[C@H](CC(N)=O)NC(=O)[C@H](Cc1ccccc1)NC(=O)[C@H](CCC(N)=O)NC(=O)[C@H](CC(N)=O)NC(=O)[C@H](C)NC(=O)[C@@H](NC(=O)[C@H](CCC(N)=O)NC(=O)[C@H](CCCCN)NC(=O)[C@H](CCC(N)=O)NC(=O)[C@H](CC(N)=O)NC(=O)[C@H](CCC(=O)O)NC(=O)[C@H](Cc1ccc(O)cc1)NC(=O)[C@H](CC(C)C)NC(=O)[C@@H](NC(=O)[C@H](CC(N)=O)NC(=O)[C@H](CCC(N)=O)NC(C)=O)C(C)C)[C@@H](C)CC)C(=O)N[C@@H](CO)C(=O)N[C@@H](CCC(N)=O)C(=O)N[C@H](C(=O)N[C@@H](CCC(N)=O)C(=O)N[C@@H](CCC(=O)O)C(=O)N[C@@H](CO)C(=O)N[C@@H](CC(C)C)C(=O)N[C@H](C(=O)N[C@H](C(=O)N[C@H](C(=O)N[C@@H](CO)C(=O)N[C@H](C(=O)N[C@@H](C)C(=O)N[C@@H](CC(C)C)C(=O)NCC(=O)N[C@@H](CCCCN)C(N)=O)[C@@H](C)O)[C@@H](C)O)[C@@H](C)O)[C@@H](C)O)[C@@H](C)CC [HR-N7]
interaction with HR-C1 (in words): No interactions

CC[C@H](C)[C@H](NC(=O)[C@H](C)NC(=O)[C@H](CCCCN)NC(=O)[C@H](CC(N)=O)NC(=O)[C@H](Cc1ccccc1)NC(=O)[C@H](CCC(N)=O)NC(=O)[C@H](CC(N)=O)NC(=O)[C@H](C)NC(=O)[C@@H](NC(=O)[C@H](CCC(N)=O)NC(=O)[C@H](CCCCN)NC(=O)[C@H](CCC(N)=O)NC(C)=O)[C@@H](C)CC)C(=O)N[C@@H](CO)C(=O)N[C@@H](CCC(N)=O)C(=O)N[C@H](C(=O)N[C@@H](CCC(N)=O)C(=O)N[C@@H](CCC(=O)O)C(=O)N[C@@H](CO)C(=O)N[C@@H](CC(C)C)C(=O)N[C@H](C(=O)N[C@H](C(=O)N[C@H](C(=O)N[C@@H](CO)C(=O)N[C@H](C(=O)N[C@@H](C)C(=O)N[C@@H](CC(C)C)C(=O)NCC(=O)N[C@@H](CCCCN)C(=O)N[C@@H](CC(C)C)C(=O)N[C@@H](CCC(N)=O)C(=O)N[C@@H](CC(=O)O)C(=O)N[C@H](C(=O)N[C@H](C(=O)N[C@@H](CC(N)=O)C(=O)N[C@@H](CCC(N)=O)C(N)=O)C(C)C)C(C)C)[C@@H](C)O)[C@@H](C)O)[C@@H](C)O)[C@@H](C)O)[C@@H](C)CC [HR-N8]
interaction with HR-C1 (in words): No interactions
